This note sets out measurements from patent US20260062387A1, “SALT-INDUCIBLE KINASE INHIBITOR COMPOUND AND PHARMACEUTICAL COMPOSITION INCLUDING THE SAME” (MITSUBISHI TANABE PHARMA CORPORATION, priority 2023, published 2026).

Format in all cases: biochemical
For experiment [1], the target named is GST-tagged SIK3 (Homo sapiens (Human), UniProt Q9Y2K2). The experiment in a line: SIK3 inhibition test (ADP-Glo Max Assay). The conditions noted are these: enzyme 100 nM, AMARA Peptide 100 μM, ATP 1 mM, 2 hours room temperature. The method, then:
(§1) The compounds described in Examples above were used in the SIK1, SIK2, and SIK3 inhibition test.
(§2) The inhibitory activity of the compound for SIK1, SIK2, and SIK3 enzymes was assayed by measuring the amount of ADP, an enzyme reaction product, with ADP-Glo™ Max Assay (Promega). Enzymes, specifically, GST-tagged SIK1 (Carna Biosciences, Inc.), GST-tagged SIK2 (Carna Biosciences, Inc.), and GST-tagged SIK3 (SignalChem) were prepared in a reaction buffer (15 mM tris-hydrochloric acid buffer (pH 7.5), 0.001% Triton X-100, 0.01% BSA) so that the final concentration would be 20 nM, 3 nM, and 100 nM. Enzyme solutions were thus formed. In a reaction buffer, AMARA Peptide (SignalChem) as a substrate with a final concentration of 200 μM (SIK1, SIK2) or 100 μM (SIK3), ATP (Promega) with a final concentration of 1 mM, and magnesium chloride with a final concentration of 5 mM were prepared. Substrate solutions were thus formed. The enzyme solution, the substrate solution, and a DMSO solution of a concentration of the test compound were mixed together and reacted at room temperature for 2 hours. After the reaction, ADP-Glo™ Reagent (Promega) was added, and the reaction was performed at room temperature for 30 minutes. Subsequently, ADP-Glo™ Max Detection Reagent (Promega) was added, and the reaction was performed at room temperature for 30 minutes. The emission by the luciferase reaction was measured with PHERAstar FSX (BMG LABTECH).
(§3) The inhibitory ratio (%) was calculated by: % Inhibition={1−(intensity of sample−intensity of blank (no enzyme solution added))/(intensity of control (DMSO alone)−intensity of blank)}×100. The inhibitory concentration IC50 was calculated based on 16 data values obtained in the concentration response test.
In general terms: In ADP-Glo the light output rises with the ADP produced.

Experiment [2] has as its target GST-tagged SIK1 (Homo sapiens (Human), UniProt P57059). The experiment can be described thus: SIK1 inhibition test (ADP-Glo Max Assay). The conditions noted are these: enzyme 20 nM, AMARA Peptide 200 μM, ATP 1 mM, 2 hours room temperature. On the procedure: as §1, §2, §3
The target in experiment [3] is GST-tagged SIK2 (Homo sapiens (Human), UniProt Q9H0K1). The experiment can be described thus: SIK2 inhibition test (ADP-Glo Max Assay). The conditions noted are these: enzyme 3 nM, AMARA Peptide 200 μM, ATP 1 mM, 2 hours room temperature. On the procedure: as §1, §2, §3
Sequence of GST-tagged SIK2 (Q9H0K1 whole entry): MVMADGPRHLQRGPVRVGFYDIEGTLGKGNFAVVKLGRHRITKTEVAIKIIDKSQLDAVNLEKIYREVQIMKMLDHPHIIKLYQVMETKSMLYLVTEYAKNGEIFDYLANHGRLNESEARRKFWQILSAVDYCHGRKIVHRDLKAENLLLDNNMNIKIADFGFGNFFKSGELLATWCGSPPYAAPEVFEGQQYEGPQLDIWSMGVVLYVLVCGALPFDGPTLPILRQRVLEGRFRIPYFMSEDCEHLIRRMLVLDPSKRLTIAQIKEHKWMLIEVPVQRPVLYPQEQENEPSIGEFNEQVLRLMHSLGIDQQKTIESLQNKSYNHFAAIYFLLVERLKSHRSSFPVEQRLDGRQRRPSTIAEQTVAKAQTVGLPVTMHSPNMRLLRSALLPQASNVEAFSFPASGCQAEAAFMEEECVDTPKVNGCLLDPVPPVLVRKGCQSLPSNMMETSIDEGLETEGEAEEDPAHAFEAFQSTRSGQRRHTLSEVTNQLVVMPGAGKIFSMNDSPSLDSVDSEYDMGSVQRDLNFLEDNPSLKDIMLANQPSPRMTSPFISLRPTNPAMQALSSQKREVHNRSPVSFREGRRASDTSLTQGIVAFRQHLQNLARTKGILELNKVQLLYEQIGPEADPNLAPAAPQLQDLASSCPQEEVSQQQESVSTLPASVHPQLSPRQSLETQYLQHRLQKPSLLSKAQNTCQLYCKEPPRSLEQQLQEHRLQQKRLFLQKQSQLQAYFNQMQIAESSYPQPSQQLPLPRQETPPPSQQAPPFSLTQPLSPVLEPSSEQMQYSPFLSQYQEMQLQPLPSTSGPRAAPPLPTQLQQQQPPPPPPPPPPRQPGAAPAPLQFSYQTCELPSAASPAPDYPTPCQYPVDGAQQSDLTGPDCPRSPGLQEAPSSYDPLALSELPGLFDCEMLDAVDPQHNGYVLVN

Sequence of GST-tagged SIK1 (P57059 whole entry): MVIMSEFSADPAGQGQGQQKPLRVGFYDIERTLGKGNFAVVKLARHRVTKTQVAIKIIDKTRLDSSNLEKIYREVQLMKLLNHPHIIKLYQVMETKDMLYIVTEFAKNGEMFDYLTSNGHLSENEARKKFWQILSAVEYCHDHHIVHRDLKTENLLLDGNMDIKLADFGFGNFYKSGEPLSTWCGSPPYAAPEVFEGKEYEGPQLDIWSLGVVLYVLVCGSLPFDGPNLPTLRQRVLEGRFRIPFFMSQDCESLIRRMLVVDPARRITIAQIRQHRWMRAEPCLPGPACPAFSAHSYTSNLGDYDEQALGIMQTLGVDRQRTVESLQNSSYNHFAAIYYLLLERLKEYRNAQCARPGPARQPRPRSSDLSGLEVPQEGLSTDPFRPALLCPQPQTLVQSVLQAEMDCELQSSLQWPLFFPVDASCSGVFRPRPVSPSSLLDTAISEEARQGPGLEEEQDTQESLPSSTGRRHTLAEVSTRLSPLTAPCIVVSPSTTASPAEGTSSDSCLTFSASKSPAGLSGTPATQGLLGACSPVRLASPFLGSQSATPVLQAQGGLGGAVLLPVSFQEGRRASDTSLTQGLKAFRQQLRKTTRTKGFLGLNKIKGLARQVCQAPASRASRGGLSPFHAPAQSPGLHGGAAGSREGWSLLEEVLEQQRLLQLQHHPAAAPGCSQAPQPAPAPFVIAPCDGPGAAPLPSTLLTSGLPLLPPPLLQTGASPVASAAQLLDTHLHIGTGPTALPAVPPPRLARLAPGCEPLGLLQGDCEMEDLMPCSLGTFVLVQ
Sequence of GST-tagged SIK3 (Q9Y2K2 whole entry): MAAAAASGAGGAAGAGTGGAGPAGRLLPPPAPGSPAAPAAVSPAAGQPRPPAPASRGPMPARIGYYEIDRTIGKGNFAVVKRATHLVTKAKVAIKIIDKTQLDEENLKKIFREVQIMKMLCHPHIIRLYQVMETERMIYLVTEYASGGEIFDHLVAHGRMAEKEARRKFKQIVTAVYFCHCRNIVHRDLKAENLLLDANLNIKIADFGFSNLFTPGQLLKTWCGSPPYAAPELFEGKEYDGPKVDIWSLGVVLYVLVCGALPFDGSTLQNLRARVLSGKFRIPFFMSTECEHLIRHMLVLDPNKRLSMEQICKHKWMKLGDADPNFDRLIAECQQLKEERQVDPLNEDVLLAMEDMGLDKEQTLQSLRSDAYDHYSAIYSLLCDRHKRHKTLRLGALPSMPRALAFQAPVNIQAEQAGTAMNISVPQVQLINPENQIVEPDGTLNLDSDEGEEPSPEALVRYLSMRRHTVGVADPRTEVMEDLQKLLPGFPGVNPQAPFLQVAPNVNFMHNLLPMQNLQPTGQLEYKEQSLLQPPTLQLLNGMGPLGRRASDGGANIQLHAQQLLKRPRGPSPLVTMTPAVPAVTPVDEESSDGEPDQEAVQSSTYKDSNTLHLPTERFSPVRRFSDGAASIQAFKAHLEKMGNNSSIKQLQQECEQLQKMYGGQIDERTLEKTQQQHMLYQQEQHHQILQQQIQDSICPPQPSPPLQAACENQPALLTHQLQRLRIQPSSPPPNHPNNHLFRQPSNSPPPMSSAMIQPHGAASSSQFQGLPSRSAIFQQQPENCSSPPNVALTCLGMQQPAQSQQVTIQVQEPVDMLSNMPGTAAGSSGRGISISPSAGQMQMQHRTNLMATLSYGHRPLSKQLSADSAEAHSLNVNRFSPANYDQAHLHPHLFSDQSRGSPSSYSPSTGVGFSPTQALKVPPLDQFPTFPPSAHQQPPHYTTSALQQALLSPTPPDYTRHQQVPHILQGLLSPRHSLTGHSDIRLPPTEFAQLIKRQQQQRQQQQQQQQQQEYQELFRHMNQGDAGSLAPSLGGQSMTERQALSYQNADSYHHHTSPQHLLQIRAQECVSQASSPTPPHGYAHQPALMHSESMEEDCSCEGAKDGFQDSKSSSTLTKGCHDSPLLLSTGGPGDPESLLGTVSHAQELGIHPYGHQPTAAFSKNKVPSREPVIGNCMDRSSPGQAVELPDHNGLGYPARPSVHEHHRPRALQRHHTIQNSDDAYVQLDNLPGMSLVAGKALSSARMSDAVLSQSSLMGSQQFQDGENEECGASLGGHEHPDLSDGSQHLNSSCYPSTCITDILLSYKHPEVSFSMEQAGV

The IC50 is the concentration at which inhibition is half-maximal. Low readings indicate inhibition by little substance, high ones a need for much substance. As to `COc1cc(-c2c3c(OC(F)F)cc(-c4cnn(C)c4)cc3nn2C)cc(OC(F)F)c1C(=O)N1CC(O)(C(F)(F)F)C1` [Example 14, [2-(difluoromethoxy)-4-[4-(difluoromethoxy)-2-methyl-6-(1-methylpyrazol-4-yl)indazol-3-yl]-6-methoxyphenyl]-[3-hydroxy-3-(trifluoromethyl)azetidin-1-yl]methanone], the 50% inhibitory concentration (IC50) stood at 2.4 nM in experiment [1], 3.6 nM in experiment [2] and 8.8 nM in experiment [3].
For `CCn1cc(-c2cc(C#N)c3c(-c4cc(OC)c(C(=O)N5CC(O)(C(F)(F)F)C5)c(OC(F)F)c4)n(C)nc3c2)cn1` [Example 15, 3-[3-(difluoromethoxy)-4-[3-hydroxy-3-(trifluoromethyl)azetidin-1-carbonyl]-5-methoxyphenyl]-6-(1-ethylpyrazol-4-yl)-2-methylindazole-4-carbonitrile], in that order: 1.4 nM, 9.2 nM and 10.3 nM.
For `COc1cc(-c2c3c(C#N)cc(-c4cnn(CC(C)(C)O)c4)cc3nn2C)cc(OC(F)F)c1C(=O)N1CC(O)(C(F)(F)F)C1` [Example 16], the concentration for half-maximal inhibition (IC50) is 3.2 nM in experiment [1], 8.7 nM in experiment [2] and 13.8 nM in experiment [3].
For `COc1cc(-c2c3c(C#N)cc(-c4cnn(CC(=O)N(C)C)c4)cc3nn2C)cc(OC(F)F)c1C(=O)N1CC(O)(C(F)(F)F)C1` [Example 17, 2-[4-[4-cyano-3-[3-(difluoromethoxy)-4-[3-hydroxy-3-(trifluoromethyl)azetidin-1-carbonyl]-5-methoxyphenyl]-2-methylindazol-6-yl]pyrazol-1-yl]-N,N-dimethylacetamide], the IC50 in experiment [1] was found to be 7.1 nM; in experiment [2], 5.4 nM; in experiment [3] it was 8.5 nM.
For `CCn1cc(-c2cc(C#N)c3c(-c4cc(OC)c(C(=O)N[C@@H]5C[C@@H]5F)c(OC(F)F)c4)n(C)nc3c2)cn1` [Example 18, 4-[4-cyano-6-(1-ethylpyrazol-4-yl)-2-methylindazol-3-yl]-2-(difluoromethoxy)-N-[(1R,2S)-2-fluorocyclopropyl]-6-methoxybenzamide], in that order: 7 nM, 1.4 nM and 3.1 nM.
The like results for `COc1cc(-c2c3c(C#N)cc(-c4cnn(CCN(C)C)c4)cc3nn2C)cc(OC(F)F)c1C(=O)N[C@@H]1C[C@@H]1F` [Example 19, 4-[4-cyano-6-[1-[2-(dimethylamino)ethyl]pyrazol-4-yl]-2-methylindazol-3-yl]-2-(difluoromethoxy)-N-[(1R,2S)-2-fluorocyclopropyl]-6-methoxybenzamide] were, in that order, 8.7 nM, 2.5 nM and 1.3 nM.
Regarding `COc1cc(-c2c3c(C#N)cc(-c4cnn(C(C)(C)C)c4)cc3nn2C)cc(OC(F)F)c1C(=O)N[C@@H]1C[C@@H]1F` [Example 20, 4-[6-(1-tert-butylpyrazol-4-yl)-4-cyano-2-methylindazol-3-yl]-2-(difluoromethoxy)-N-[(1R,2S)-2-fluorocyclopropyl]-6-methoxybenzamide], the figures for the IC50 in experiment [1], in experiment [2] and in experiment [3] were 13.7 nM, 4.4 nM and 5.8 nM, respectively.
Take `COc1cc(-c2c3c(C#N)cc(-c4cc(C)ns4)cc3nn2C)cc(OC(F)F)c1C(=O)N[C@@H]1C[C@@H]1F` [Example 21, 4-[4-cyano-2-methyl-6-(3-methyl-1,2-thiazol-5-yl)indazol-3-yl]-2-(difluoromethoxy)-N-[(1R,2S)-2-fluorocyclopropyl]-6-methoxybenzamide]: the half-maximal inhibitory concentration (IC50) was determined as 4 nM in experiment [1], 16.9 nM in experiment [2] and 5.6 nM in experiment [3].
The like results for `COc1cc(-c2c3c(C#N)cc(-c4cnn(C5CCOC5)c4)cc3nn2C)cc(OC(F)F)c1C(=O)N[C@@H]1C[C@@H]1F` (stereo partly drawn) [Example 22, 4-[4-cyano-2-methyl-6-[1-(oxolan-3-yl)pyrazol-4-yl]indazol-3-yl]-2-(difluoromethoxy)-N-[(1R,2S)-2-fluorocyclopropyl]-6-methoxybenzamide] were, in that order, 7.7 nM, 2 nM and 3.2 nM.
Regarding `COc1cc(-c2c3c(C#N)cc(-c4cnn(C)c4)cc3nn2C)cc(OC(F)F)c1C(=O)N[C@@H]1CC1(F)F` [Example 23, 4-[4-cyano-2-methyl-6-(1-methylpyrazol-4-yl)indazol-3-yl]-N-[(1R)-2,2-difluorocyclopropyl]-2-(difluoromethoxy)-6-methoxybenzamide], the concentration for half-maximal inhibition (IC50) in experiment [1] turned out to be 5 nM; in experiment [2] it was 2.1 nM; in experiment [3], 2.5 nM.
For `COc1cc(-c2c3c(C#N)cc(-c4cc[nH]n4)cc3nn2C)cc(OC(F)F)c1C(=O)N[C@@H]1C[C@@H]1F` [Example 24, 4-[4-cyano-2-methyl-6-(1H-pyrazol-3-yl)indazol-3-yl]-2-(difluoromethoxy)-N-[(1R,2S)-2-fluorocyclopropyl]-6-methoxybenzamide], in that order: 11.8 nM, 6.6 nM and 6.5 nM.
For `COc1cc(-c2c3c(C#N)cc(-c4cnn(C)c4)cc3nn2C)cc(OC(F)F)c1C(=O)N1CC(O)(C(F)F)C1` [Example 25, 3-[3-(difluoromethoxy)-4-[3-(difluoromethyl)-3-hydroxyazetidin-1-carbonyl]-5-methoxyphenyl]-2-methyl-6-(1-methylpyrazol-4-yl)indazole-4-carbonitrile], in that order: 12.8 nM, 9.6 nM and 10.5 nM.
For `COc1cc(-c2c3c(OCC4COC4)cc(-c4cnn(C)c4)cc3nn2C)cc(OC(F)F)c1C(=O)N1CC(O)(C(F)(F)F)C1` [Example 26, [2-(difluoromethoxy)-6-methoxy-4-[2-methyl-6-(1-methylpyrazol-4-yl)-4-(oxetan-3-ylmethoxy)indazol-3-yl]phenyl]-[3-hydroxy-3-(trifluoromethyl)azetidin-1-yl]methanone], in that order: 11.2 nM, 7.1 nM and 4.3 nM.
As for `COc1cc(-c2c3c(OCC4CCC4)cc(-c4cnn(C)c4)cc3nn2C)cc(OC(F)F)c1C(=O)N1CC(O)(C(F)(F)F)C1` [Example 27, [4-[4-(cyclobutylmethoxy)-2-methyl-6-(1-methylpyrazol-4-yl)indazol-3-yl]-2-(difluoromethoxy)-6-methoxyphenyl]-[3-hydroxy-3-(trifluoromethyl)azetidin-1-yl]methanone], the half-inhibitory concentration (IC50) in experiment [1] came to 16 nM; in experiment [2] it was 13.7 nM; in experiment [3], 12.7 nM.
As to `COc1cc(-c2c3c(OCCCO)cc(-c4cnn(C)c4)cc3nn2C)cc(OC(F)F)c1C(=O)N1CC(O)(C(F)(F)F)C1` [Example 28, [2-(difluoromethoxy)-4-[4-(3-hydroxypropoxy)-2-methyl-6-(1-methylpyrazol-4-yl)indazol-3-yl]-6-methoxyphenyl]-[3-Hydroxy-3-(trifluoromethyl)azetidin-1-yl]methanone], the concentration for half-maximal inhibition (IC50) in experiment [1] came to 13.6 nM; in experiment [2], 7.3 nM; in experiment [3], 4.7 nM.
For `COc1cc(-c2c3c(OCC4CC4)cc(-c4cnn(C)c4)cc3nn2C)cc(OC(F)F)c1C(=O)N1CC(O)(C(F)(F)F)C1` [Example 29, [4-[4-(cyclopropylmethoxy)-2-methyl-6-(1-methylpyrazol-4-yl)indazol-3-yl]-2-(difluoromethoxy)-6-methoxyphenyl]-[3-hydroxy-3-(trifluoromethyl)azetidin-1-yl]methanone], in that order: 13.2 nM, 8.6 nM and 10.3 nM.
